Data on one molecule can be found in article PMC11025159 (Journal of Translational Medicine, 2024).

Usually IC50 stands for the midpoint of a concentration-inhibition curve.

Read-outs that look alike come from different tables or passages of the source.

For one series, the target named is T1, JAK3 (Homo sapiens, UniProt P52333).
T1 construct: purchased Promega Corporation V3701
T1 sequence (P52333 1-1124): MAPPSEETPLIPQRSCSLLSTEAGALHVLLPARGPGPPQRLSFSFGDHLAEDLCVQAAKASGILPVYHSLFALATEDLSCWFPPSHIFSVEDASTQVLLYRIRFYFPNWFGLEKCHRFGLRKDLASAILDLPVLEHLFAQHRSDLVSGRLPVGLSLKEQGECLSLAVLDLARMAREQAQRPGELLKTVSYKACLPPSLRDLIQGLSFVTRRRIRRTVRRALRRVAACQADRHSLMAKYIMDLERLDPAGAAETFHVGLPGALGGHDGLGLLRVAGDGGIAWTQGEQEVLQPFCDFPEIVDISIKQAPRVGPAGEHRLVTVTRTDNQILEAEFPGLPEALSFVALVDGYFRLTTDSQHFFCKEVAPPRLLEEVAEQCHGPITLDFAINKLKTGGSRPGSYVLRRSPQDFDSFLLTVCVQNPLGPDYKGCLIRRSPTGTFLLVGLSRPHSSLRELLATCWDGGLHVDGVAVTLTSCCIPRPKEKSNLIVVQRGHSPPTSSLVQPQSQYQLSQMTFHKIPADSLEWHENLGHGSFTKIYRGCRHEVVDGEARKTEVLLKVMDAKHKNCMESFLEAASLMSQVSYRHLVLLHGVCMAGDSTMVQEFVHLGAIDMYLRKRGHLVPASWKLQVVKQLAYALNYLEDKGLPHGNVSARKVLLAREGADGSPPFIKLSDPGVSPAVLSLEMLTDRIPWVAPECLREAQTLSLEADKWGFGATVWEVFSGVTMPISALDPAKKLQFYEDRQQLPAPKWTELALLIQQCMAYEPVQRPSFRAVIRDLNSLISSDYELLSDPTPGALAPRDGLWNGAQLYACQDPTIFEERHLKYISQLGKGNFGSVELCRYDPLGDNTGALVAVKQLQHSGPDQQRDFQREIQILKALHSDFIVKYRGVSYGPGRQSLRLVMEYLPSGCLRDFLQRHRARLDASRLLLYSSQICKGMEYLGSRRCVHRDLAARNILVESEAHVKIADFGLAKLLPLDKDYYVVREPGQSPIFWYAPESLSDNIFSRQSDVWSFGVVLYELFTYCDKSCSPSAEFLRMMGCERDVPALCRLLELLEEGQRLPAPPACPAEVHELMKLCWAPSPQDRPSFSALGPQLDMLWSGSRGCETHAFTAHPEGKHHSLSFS
Kind of series: Cell-free kinase assay JAK3. Format: biochemical. Here is the method:
(§1) The cell-free kinase assays of small molecules were determined by following the manufacturer-recommended protocols. Different concentrations in triplicate were used to determine the IC50 value of the hit molecules (active molecules). For data analysis, GraphPad Prism V9.5 Software and a sigmoidal dose–response (variable slope) equation were used. Each value represents an average of three replicates per concentration.

Another series concerns the target T2, JAK1 (Homo sapiens, UniProt P23458).
T2 construct: purchased Promega Corporation VA7207
Kind of series: Cell-free kinase assay JAK1. Format: biochemical. Here is the method:
as §1

The target of the next series is T3, JAK2 (Homo sapiens, UniProt O60674).
T3 construct: purchased BPS Bioscience 79,520
Kind of series: Cell-free kinase assay JAK2. Format: biochemical. The following applies: for IC50: read-out: IC50 JAK 2. Here is the method: as §1

The test system of a further series is HEK-293. Description: MTT cell viability assay HEK-293. Format: cell-based, human. The method, then: Cell viability was evaluated using an MTT colorimetric assay. Cells were seeded (10^5 cells/mL) in 96-well plates and allowed to grow overnight at 37 ℃ with 5% CO2 in a cell-culture incubator. On the following day, the cells were treated with small molecules at different concentrations (0.2–10 micro-molar) or vehicle (DMSO). Cells were then further incubated for 48 h.

The subject of the next series is human hair follicles. Kind of series: Human hair follicle organ culture ex-vivo. As to conditions: 20 days culture, vs vehicle and untreated follicles. Here is the method: Hair follicles were collected from three single donors of androgenetic alopecia undergoing hair transplant surgery at the Department of Dermatology, All India Institute of Medical Sciences, New Delhi, India. All experimental procedures were approved by the Institutional Ethics Committee […] of AIIMS, New Delhi (IEC approval No: 550/01.09.2023). Donors were above 18 years of age. Isolated hair follicles were cultured as per the previously described method of Philpott et al.. Immediately after isolation, follicles were placed in 24 well plates under sterile conditions into ice-cold Williams’ medium E (Sigma) with the different concentrations of MJ04 for 20 days. Half media was replaced with fresh media every 3rd day for 20 days. Basal length, i.e., length on the day of starting culture and post treatment was measured. Photographs were taken with a Nikon digital camera.

Series [1] concerns Murine macrophages (J774a.1). Description: Cytokines from LPS primed macrophages (ELISA). The format is cell-based. The following applies: dose-dependent. Here is the method: The supernatant was collected and stored at −20 ℃ for further cytokines analysis. The level of cytokines (TNF-α, IL1-β, and IL-6) was analyzed by sandwich ELISA as per the manufacturer protocol (BD Biosciences). In brief, capture antibodies were coated in the 96-well ELISA plate (Nunc) in respective coating buffer at 4 ℃ overnight. The plate was washed 4 times with washing buffer and blocked with the recommended blocking buffer for 1 h at room temperature. After incubation, plates were washed 4 times, added with sample and standard, and further incubated for another 2 h. Plates were then washed 4 times, added with detection antibody in combination of HRP for 1 h, and finally again washed 5 times. HRP substrate (TMB) was added and allowed to develop observable colour, and the reaction was stopped by adding 2 N H2SO4, and absorbance was recorded at 450 nm with 570 nm correction.
(An ELISA detects its analyte on a solid surface through an enzyme-linked reagent.)

The next series has as its target T4, hERG channels (Homo sapiens, UniProt Q12809).
T4 construct: host or cells: HEK293
Kind of series: hERG channel assay, whole cell patch clamp. Format: cell-based. On the technique in general: The hERG channel carries a current that helps repolarise heart muscle cells.

T2 sequence (P23458 whole entry): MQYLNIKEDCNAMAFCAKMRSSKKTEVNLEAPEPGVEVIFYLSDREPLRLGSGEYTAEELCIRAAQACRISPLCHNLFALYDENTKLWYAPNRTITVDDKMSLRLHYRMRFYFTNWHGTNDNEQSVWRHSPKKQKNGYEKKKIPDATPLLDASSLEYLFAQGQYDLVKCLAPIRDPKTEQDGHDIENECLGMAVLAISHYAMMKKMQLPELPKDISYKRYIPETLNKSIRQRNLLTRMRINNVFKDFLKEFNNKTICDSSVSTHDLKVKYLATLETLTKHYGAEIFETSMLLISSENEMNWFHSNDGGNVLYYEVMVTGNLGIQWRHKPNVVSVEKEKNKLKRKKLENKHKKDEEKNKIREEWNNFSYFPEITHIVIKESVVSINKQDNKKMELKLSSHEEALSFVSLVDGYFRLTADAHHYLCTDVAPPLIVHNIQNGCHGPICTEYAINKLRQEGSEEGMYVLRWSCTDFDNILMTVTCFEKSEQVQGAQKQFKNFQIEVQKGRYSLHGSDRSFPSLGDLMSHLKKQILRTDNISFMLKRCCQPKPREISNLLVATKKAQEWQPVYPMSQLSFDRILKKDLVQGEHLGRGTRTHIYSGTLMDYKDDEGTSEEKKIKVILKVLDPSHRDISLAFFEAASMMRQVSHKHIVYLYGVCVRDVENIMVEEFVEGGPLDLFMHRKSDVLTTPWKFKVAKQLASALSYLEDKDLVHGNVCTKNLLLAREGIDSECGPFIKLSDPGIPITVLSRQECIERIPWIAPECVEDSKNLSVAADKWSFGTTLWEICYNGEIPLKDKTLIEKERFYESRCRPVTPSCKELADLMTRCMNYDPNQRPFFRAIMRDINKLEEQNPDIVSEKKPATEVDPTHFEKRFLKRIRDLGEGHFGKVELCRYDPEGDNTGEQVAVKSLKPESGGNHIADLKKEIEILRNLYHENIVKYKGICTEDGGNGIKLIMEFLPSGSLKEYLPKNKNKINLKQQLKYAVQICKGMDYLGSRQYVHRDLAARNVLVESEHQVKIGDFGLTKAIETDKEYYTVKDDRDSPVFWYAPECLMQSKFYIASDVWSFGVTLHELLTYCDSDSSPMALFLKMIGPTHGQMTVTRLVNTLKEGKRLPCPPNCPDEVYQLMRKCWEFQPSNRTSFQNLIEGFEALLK
T3 sequence (O60674 whole entry): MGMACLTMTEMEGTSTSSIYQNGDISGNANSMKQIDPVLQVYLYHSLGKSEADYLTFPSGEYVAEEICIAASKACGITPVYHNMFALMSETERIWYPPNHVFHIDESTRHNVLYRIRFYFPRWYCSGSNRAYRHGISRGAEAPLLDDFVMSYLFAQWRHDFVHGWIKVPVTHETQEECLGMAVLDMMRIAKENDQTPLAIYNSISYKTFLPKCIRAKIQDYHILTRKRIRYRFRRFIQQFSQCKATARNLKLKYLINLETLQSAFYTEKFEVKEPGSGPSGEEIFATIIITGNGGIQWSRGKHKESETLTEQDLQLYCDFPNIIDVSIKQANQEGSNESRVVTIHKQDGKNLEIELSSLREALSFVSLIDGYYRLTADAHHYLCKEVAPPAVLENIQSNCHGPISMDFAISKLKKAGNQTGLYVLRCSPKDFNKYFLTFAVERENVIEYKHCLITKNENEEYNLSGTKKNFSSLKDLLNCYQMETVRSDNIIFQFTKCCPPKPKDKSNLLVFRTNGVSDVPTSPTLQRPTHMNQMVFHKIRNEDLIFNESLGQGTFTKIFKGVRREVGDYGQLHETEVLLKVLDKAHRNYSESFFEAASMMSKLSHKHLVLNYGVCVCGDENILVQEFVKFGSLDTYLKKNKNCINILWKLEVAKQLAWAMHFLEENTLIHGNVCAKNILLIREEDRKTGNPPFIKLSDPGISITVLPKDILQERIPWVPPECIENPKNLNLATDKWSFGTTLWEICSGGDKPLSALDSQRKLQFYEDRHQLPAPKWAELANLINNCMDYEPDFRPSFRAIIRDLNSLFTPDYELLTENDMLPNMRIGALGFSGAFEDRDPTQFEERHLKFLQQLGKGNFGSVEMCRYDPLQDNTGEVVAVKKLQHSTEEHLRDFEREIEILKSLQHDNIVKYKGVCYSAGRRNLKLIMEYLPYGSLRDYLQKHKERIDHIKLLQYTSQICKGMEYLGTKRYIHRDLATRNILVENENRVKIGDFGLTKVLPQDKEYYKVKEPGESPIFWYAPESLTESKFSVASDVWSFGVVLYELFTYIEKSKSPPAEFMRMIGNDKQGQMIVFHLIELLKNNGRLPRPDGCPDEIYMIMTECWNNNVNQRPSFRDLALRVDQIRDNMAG
T4 sequence (Q12809 whole entry): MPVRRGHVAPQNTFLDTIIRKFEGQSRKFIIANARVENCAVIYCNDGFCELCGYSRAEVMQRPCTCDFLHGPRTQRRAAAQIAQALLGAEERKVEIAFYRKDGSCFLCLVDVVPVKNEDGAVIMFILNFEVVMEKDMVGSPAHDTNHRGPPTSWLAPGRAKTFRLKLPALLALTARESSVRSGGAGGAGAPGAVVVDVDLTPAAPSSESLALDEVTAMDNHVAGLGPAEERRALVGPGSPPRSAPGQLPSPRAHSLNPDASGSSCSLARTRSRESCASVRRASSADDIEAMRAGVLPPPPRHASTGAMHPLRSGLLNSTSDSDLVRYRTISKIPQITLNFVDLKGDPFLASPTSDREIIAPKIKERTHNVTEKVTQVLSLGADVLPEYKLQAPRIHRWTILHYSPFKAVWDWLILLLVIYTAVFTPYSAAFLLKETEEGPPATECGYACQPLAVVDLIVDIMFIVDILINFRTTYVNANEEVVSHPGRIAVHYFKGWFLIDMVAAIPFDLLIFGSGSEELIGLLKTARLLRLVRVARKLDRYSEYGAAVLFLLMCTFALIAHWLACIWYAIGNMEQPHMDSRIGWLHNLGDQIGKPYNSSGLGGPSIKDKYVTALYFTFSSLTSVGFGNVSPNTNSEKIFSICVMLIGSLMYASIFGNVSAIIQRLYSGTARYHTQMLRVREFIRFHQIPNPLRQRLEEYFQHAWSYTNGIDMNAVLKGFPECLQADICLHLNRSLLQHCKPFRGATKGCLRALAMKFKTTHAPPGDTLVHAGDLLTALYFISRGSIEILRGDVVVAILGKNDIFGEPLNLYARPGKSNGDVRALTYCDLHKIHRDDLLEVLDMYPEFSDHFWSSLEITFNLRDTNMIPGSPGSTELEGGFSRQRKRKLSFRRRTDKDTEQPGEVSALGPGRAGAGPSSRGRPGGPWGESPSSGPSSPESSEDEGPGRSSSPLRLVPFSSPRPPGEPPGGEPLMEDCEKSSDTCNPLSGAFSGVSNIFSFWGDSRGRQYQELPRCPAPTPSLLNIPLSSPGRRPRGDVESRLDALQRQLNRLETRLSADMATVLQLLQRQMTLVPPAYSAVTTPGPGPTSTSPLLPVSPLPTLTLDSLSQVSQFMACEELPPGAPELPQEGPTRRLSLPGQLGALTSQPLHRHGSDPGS

For `Fc1ccc(-c2cnc3[nH]cc(-c4ccnc(NC5CC5)n4)c3c2)cc1` [MJ04], the IC50 was 28.5 nM at JAK3 (1mM ATP); 2.03 nM on JAK3 (Km ATP (2.5 µM)); over 10000 nM on JAK1 (1mM ATP); 193 nM against JAK1 (Km ATP); over 10000 nM at JAK2 (1mM ATP); 256 nM on JAK2 (Km ATP). In addition, the IC50 in the series with HEK-293 (Homo sapiens, HEK293, read-out: IC50 HEK-293, MTT, 48 h, normal cell line) is over 100000 nM. The “Fold of selectivity vs. JAK3” value was 1 on JAK3 (JAK 3), 95 on JAK1 (JAK1) and 126 at JAK2 (JAK 2). At JAK3 (structure-activity statement), the “inhibitory activity against JAK3 in kinase assays and in MTT assays” value is “significant inhibitory activity”. The “safety ratio (IC50 against HEK293 normal cell line versus IC50 in A549 cancer cell line)” value in the series with HEK-293 is recorded as about 26. Moreover, in the series on human hair follicles, the “length of hair shafts” value was “significantly increased the length of hair shafts”. Moreover, in series [1], the “level of proinflammatory cytokines TNF-α, IL1-β and IL-6” value was “dampens the level of proinflammatory cytokines”. Further, the “reduction of hERG outward tail current” value at hERG channels (10 μM) came out at 7.1 ± 2%. Moreover, at hERG channels (highest concentration tested (30 μM)), the “inhibitory effect on hERG, fold less than that of Tofacitinib” value is listed as ~ 2.5 fold.
